In PubChem BioAssay AID248 (DTP/NCI, 2004):
“And” between values parts separate entries of the source, which are not always exact repeats. Equal entries are not always repeated. Inconclusive results and toxic doses are left out. Cut-off read from the data, not from the text of the source: active = T/C of 150% or more; inactive = T/C below 125%.

Test system: L1210 leukemia ip in BDF1 mice, survival T/C
Assay: NCI In Vivo Anticancer Drug Screen. Data for tumor model L1210 Leukemia (intraperitoneal) in B6D2F1 (BDF1) mice
Settings: endpoint: mean survival time, higher = longer survival
Summary of the method: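 Survival endpoint. Drug-treated group vs vehicle group, expressed as T divided by C. Tumor passaged by transplantation.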

[1] = dose: 100.0 mg/kg/injection, schedule: Q04DX003 (ip), vehicle: saline with Tween-80
[2] = dose: 200.0 mg/kg/injection, schedule: Q04DX003 (ip), vehicle: saline with Tween-80
[3] = dose: 400.0 mg/kg/injection, schedule: Q04DX003 (ip), vehicle: saline with Tween-80
[4] = dose: 75.0 mg/kg/injection, schedule: Q01DX001 (ip), vehicle: other
[5] = dose: 150.0 mg/kg/injection, schedule: Q01DX001 (ip), vehicle: other
[6] = dose: 300.0 mg/kg/injection, schedule: Q01DX001 (ip), vehicle: other
[7] = dose: 100.0 mg/kg/injection, schedule: Q01DX009 (ip), vehicle: saline
[8] = dose: 200.0 mg/kg/injection, schedule: Q01DX009 (ip), vehicle: saline
[9] = dose: 400.0 mg/kg/injection, schedule: Q01DX009 (ip), vehicle: saline
[10] = dose: 50.0 mg/kg/injection, schedule: Q01DX001 (ip), vehicle: saline
[11] = dose: 100.0 mg/kg/injection, schedule: Q01DX001 (ip), vehicle: saline
[12] = dose: 150.0 mg/kg/injection, schedule: Q01DX001 (ip), vehicle: saline

Measured: T/C

O=S(=O)(CCl)Nc1ccccn1
inactive: dose: 100.0 mg/kg/injection, schedule: Q01DX009 (ip), vehicle: other 96 % of control | dose: 100.0 mg/kg/injection, schedule: Q04DX003 (ip), vehicle: other 106 % of control | dose: 200.0 mg/kg/injection, schedule: Q01DX009 (ip), vehicle: other 103 % of control | dose: 200.0 mg/kg/injection, schedule: Q04DX003 (ip), vehicle: other 108 % of control | dose: 400.0 mg/kg/injection, schedule: Q01DX009 (ip), vehicle: other 102 % of control | dose: 400.0 mg/kg/injection, schedule: Q04DX003 (ip), vehicle: other 100 % of control

CS(=O)(=O)c1nsc(S(C)(=O)=O)c1C#N
inactive: dose: 100.0 mg/kg/injection, schedule: Q04DX003 (ip), vehicle: carboxymethylcellulose (CMC) 95 % of control | dose: 200.0 mg/kg/injection, schedule: Q04DX003 (ip), vehicle: carboxymethylcellulose (CMC) 97 % of control | dose: 400.0 mg/kg/injection, schedule: Q04DX003 (ip), vehicle: carboxymethylcellulose (CMC) 95 % of control

OC(CC(O)(C(F)(F)F)C(F)(F)F)c1ccccc1 (stereo not drawn)
inactive: [1] 103 % of control | [2] 96 % of control | [3] 97 % of control

CCOC(=O)N[n+]1ccc(C)cc1
inactive: [4] 101 % of control | [5] 101 % of control | [6] 105 % of control

CCCCCOC(=O)Nc1cccc2ccccc12
inactive: dose: 100.0 mg/kg/injection, schedule: Q04DX002 (ip), vehicle: Klucel (hydroxypropylcellulose) (HPC) 94 % of control | dose: 200.0 mg/kg/injection, schedule: Q04DX002 (ip), vehicle: Klucel (hydroxypropylcellulose) (HPC) 94 % of control | dose: 400.0 mg/kg/injection, schedule: Q04DX002 (ip), vehicle: Klucel (hydroxypropylcellulose) (HPC) 98 % of control

CC/C(C)=C\CC/C(C)=C/COc1cccc(OC)c1
inactive: dose: 100.0 mg/kg/injection, schedule: Q04DX002 (ip), vehicle: saline with Tween-80 108 % of control | dose: 200.0 mg/kg/injection, schedule: Q04DX002 (ip), vehicle: saline with Tween-80 101 % of control | dose: 400.0 mg/kg/injection, schedule: Q04DX002 (ip), vehicle: saline with Tween-80 103 % of control

CCCCC(CC)C1OCCS1 (stereo not drawn)
inactive: [7] 96 % of control | dose: 100.0 mg/kg/injection, schedule: Q04DX002 (ip), vehicle: saline 96 % of control | [8] 107 % of control | dose: 200.0 mg/kg/injection, schedule: Q04DX002 (ip), vehicle: saline 92 % of control | [9] 104 % of control | dose: 400.0 mg/kg/injection, schedule: Q04DX002 (ip), vehicle: saline 99 % of control

CCCCCCCCNC(=O)C1OC(n2cnc3c(N)ncnc32)C(O)C1O (stereo not drawn)
inactive: dose: 100.0 mg/kg/injection, schedule: Q01DX005 (ip), vehicle: saline with Tween-80 86 % of control | [7] 104 % of control | dose: 200.0 mg/kg/injection, schedule: Q01DX005 (ip), vehicle: saline with Tween-80 105 % of control | [8] 91 % of control | [9] 110 % of control

CSCCC(NC(=O)c1ccccc1)C(=O)O (stereo not drawn)
inactive: dose: 100.0 mg/kg/injection, schedule: Q04DX003 (ip), vehicle: Klucel (hydroxypropylcellulose) (HPC) 94 % of control | dose: 200.0 mg/kg/injection, schedule: Q04DX003 (ip), vehicle: Klucel (hydroxypropylcellulose) (HPC) 92 % of control | dose: 400.0 mg/kg/injection, schedule: Q04DX003 (ip), vehicle: Klucel (hydroxypropylcellulose) (HPC) 94 % of control

C1CCC(C2=NC3CCCCC3SC2)CC1 (stereo not drawn)
inactive: dose: 100.0 mg/kg/injection, schedule: Q04DX002 (sc), vehicle: olive oil, sesame oil, peanut oil 103 % of control | dose: 200.0 mg/kg/injection, schedule: Q04DX002 (sc), vehicle: olive oil, sesame oil, peanut oil 107 % of control | dose: 400.0 mg/kg/injection, schedule: Q04DX002 (sc), vehicle: olive oil, sesame oil, peanut oil 96 % of control

OCCS
inactive: dose: 25.0 mg/kg/injection, schedule: Q01DX001 (ip), vehicle: saline 105 % of control | dose: 44.0 mg/kg/injection, schedule: Q01DX001 (ip), vehicle: saline 95 % of control | [10] 97 % of control | dose: 66.0 mg/kg/injection, schedule: Q01DX001 (ip), vehicle: saline 105 % of control | [11] 100 % of control and 103 % of control | [12] 103 % of control | dose: 200.0 mg/kg/injection, schedule: Q01DX001 (ip), vehicle: saline 102 % of control and 105 % of control

CC1=C(C(=O)O)C(c2ccccc2)CC(=O)N1 (stereo not drawn)
inactive: dose: 50.0 mg/kg/injection, schedule: Q01DX001 (ip), vehicle: carboxymethylcellulose (CMC) 96 % of control | dose: 100.0 mg/kg/injection, schedule: Q01DX001 (ip), vehicle: carboxymethylcellulose (CMC) 104 % of control | dose: 200.0 mg/kg/injection, schedule: Q01DX001 (ip), vehicle: carboxymethylcellulose (CMC) 98 % of control | dose: 400.0 mg/kg/injection, schedule: Q01DX001 (ip), vehicle: carboxymethylcellulose (CMC) 98 % of control

CC(=O)OC1=C(C)CCCC(C)(C)C1
inactive: [4] 92 % of control | [5] 92 % of control | [6] 97 % of control

Cc1ccc(OC(=O)Nc2ccc(C(=O)O)c(O)c2)cc1
inactive: [7] 96 % of control | dose: 100.0 mg/kg/injection, schedule: Q04DX003 (ip), vehicle: saline 96 % of control | [8] 89 % of control | dose: 200.0 mg/kg/injection, schedule: Q04DX003 (ip), vehicle: saline 93 % of control | dose: 400.0 mg/kg/injection, schedule: Q04DX003 (ip), vehicle: saline 95 % of control

S=c1nc[nH]c2c1ncn2-n1cccc1
inactive: dose: 100.0 mg/kg/injection, schedule: Q01DX001 (ip), vehicle: saline with Tween-80 97 % of control | [1] 103 % of control | dose: 200.0 mg/kg/injection, schedule: Q01DX001 (ip), vehicle: saline with Tween-80 87 % of control | [2] 98 % of control | dose: 400.0 mg/kg/injection, schedule: Q01DX001 (ip), vehicle: saline with Tween-80 92 % of control | [3] 98 % of control

C[N+](C)(C)c1ccc(N=Nc2ccccn2)cc1
inactive: [10] 113 % of control

CC1C(=O)C(Br)C2CC(O)CCC2(C)C1C (stereo not drawn)
inactive: dose: 75.0 mg/kg/injection, schedule: Q01DX001 (ip), vehicle: saline 100 % of control | [12] 94 % of control | dose: 300.0 mg/kg/injection, schedule: Q01DX001 (ip), vehicle: saline 89 % of control

CCOC(O)(C(F)(F)F)C(F)(F)F
inactive: dose: 12.5 mg/kg/injection, schedule: Q01DX009 (ip), vehicle: saline with Tween-80 96 % of control | dose: 12.5 mg/kg/injection, schedule: Q04DX003 (ip), vehicle: saline with Tween-80 95 % of control | dose: 25.0 mg/kg/injection, schedule: Q01DX009 (ip), vehicle: saline with Tween-80 105 % of control | dose: 50.0 mg/kg/injection, schedule: Q04DX003 (ip), vehicle: saline with Tween-80 97 % of control | [11] 98 % of control

C[n+]1ccc(Nc2ccc(NC(=O)c3ccc(N)cc3)cc2)cc1
inactive: dose: 12.5 mg/kg/injection, schedule: Q01DX009 (ip), vehicle: water 117 % of control | dose: 25.0 mg/kg/injection, schedule: Q01DX009 (ip), vehicle: water 107 % of control | dose: 50.0 mg/kg/injection, schedule: Q01DX009 (ip), vehicle: water 112 % of control

CCCCCCCCC/C(C)=N/NC(=O)c1ccc[n+](C)c1
inactive: dose: 50.0 mg/kg/injection, schedule: Q01DX009 (ip), vehicle: saline 93 % of control | [7] 93 % of control | [8] 96 % of control
